Test results reported in patent US11925690B2, “Bifunctional molecules for targeting Rpn11” (AMPHISTA THERAPEUTICS LTD, priority 2018, dated 2024).

Key:
Type in all cases: cell-based
Brd2, Brd3 and Brd4 = test: Immunoblot analysis of BET protein levels in HEK293 cells; settings: for Brd2, Brd3 and Brd4 protein levels (FIG. 5): HEK293, 1 μM, various time points; for Brd2, Brd3 and Brd4 protein levels (FIG. 4): increasing concentrations
Procedure: Cell culture. HeLa (CCL-2) and HEK293 (CRL-1573) cells were purchased from ATCC and cultured in DMEM medium (Gibco) supplemented with 10% FBS, 100 μg/mL penicillin/streptomycin and L-glutamine. Cells were grown at 37° C. and 5% CO2 and were kept no longer than 30 passages. All cell lines were routinely tested for mycoplasma contamination using MycoAlert kit from Lonza.
(§1) HeLa (5×10^5) and HEK293 (1×10^6) cells were seeded in standard 6-well plates (2 mL medium) overnight before treatment with 1 μM compound with a final DMSO concentration of v/v. After 4 h incubation time, cells were washed with DPBS (Gibco) and lysed using 85 μL RIPA buffer (Sigma-Aldrich) supplemented with cOmplete Mini EDTA-free protease inhibitor cocktail (Roche) and benzonase. Lysates were clarified by centrifugation (20000 g, 10 min, 4° C.) and the total protein content of the supernatant was quantified using a Bradford colorimetric assay. Samples were prepared using equal amounts of total protein and LDS sample buffer (Invitrogen).
(§2) Immunoblotting. Proteins were separated by SDS-PAGE on NuPage 4-12% Bis-Tris gels, followed by transfer to Amersham Protran 0.45 NC nitrocellulose membrane (GE Healthcare) using wet transfer. Membranes were blocked using 5% w/v milk in Tris-buffered saline (TBS) with 0.1% Tween-20. Blots were probed (overnight at 4 °C) using anti-Brd2 (Abcam ab139690, 1:2,000 dilution), anti-Brd3 (Abcam ab50818, 1:500 dilution), and anti-Brd4 (Abcam ab128874, 1:1,000 dilution) primary antibodies, as appropriate. The next day, blots were washed with TBST and incubated (1 h at Room temperature) with anti-Tubulin hFAB-rhodamine (BioRad, 12004166) primary antibody, and either anti-rabbit IRDye 800CW (Licor 1:1,000 dilution) or anti-mouse IRDye 800CW (Licor 1:1,000 dilution) secondary antibody. Blots were developed using a Bio-Rad ChemiDoc MP Imaging System, and band quantification was performed using Image Studio software (LiCor). Band intensities were normalized to the tubulin loading control and reported as % of the average 0.1% DMSO vehicle intensity. Degradation data was plotted and analysed using Prism (Graphpad, version 8).
as §1, with “treatment with compounds at the desired concentration (1 nM-10 μM), with a” for “treatment with 1 μM compound with a”, “concentration of 0.1% v/v. After” for “concentration of v/v. After”, “4 h treatment time, cells” for “4 h incubation time, cells”, “buffer (Invitrogen). Band intensities were normalized to the tubulin loading control and reported as % of the average 0.1% DMSO vehicle intensity. Degradation data was plotted and analysed using Prism (Graphpad, version 8).” for “buffer (Invitrogen).”
HEK293 (0.5×10^6) cells were seeded in standard 6-well plates (2 mL medium) overnight before treatment with compounds at 1 μM concentration, with a final DMSO concentration of 0.1% v/v. […] Lysates were clarified by centrifugation (20000 g, 10 min, 4° C.) and the total protein content of the supernatant was quantified using a Bradford colorimetric assay. […] Degradation data was plotted and analysed using Prism (Graphpad, version 8).

Brd2 [1] = target: T1, Brd2 (Homo sapiens, UniProt P25440); test: Time-dependent BET degradation, immunoblot; settings: HEK293, Brd2, 1 μM; for Dmax at 1 µM: 0-24 hrs; for Abs. T1/2: time to deplete 50% of the protein relative to DMSO; for T1/2: time to reach 50% of the Dmax
Procedure: as §2
(§3) HEK293 (0.5×10^6) cells were seeded in standard 6-well plates (2 mL medium) overnight before treatment with compounds at 1 μM concentration, with a final DMSO concentration of 0.1% v/v. After incubation for the desired time (0-24 hrs), cells were washed with DPBS (Gibco) and lysed using 85 μL RIPA buffer (Sigma-Aldrich) supplemented with complete Mini EDTA-free protease inhibitor cocktail (Roche) and benzonase. Lysates were clarified by centrifugation (20000 g, 10 min, 4° C.) and the total protein content of the supernatant was quantified using a Bradford colorimetric assay. Samples were prepared using equal amounts of total protein and LDS sample buffer (Invitrogen). Band intensities were normalized to the tubulin loading control and reported as % of the average 0.1% DMSO vehicle intensity. Degradation data was plotted and analysed using Prism (Graphpad, version 8).
(§4) MZ1 and 11JQ17 were used at 1 μM (4 h) for positive and negative controls, respectively. […]

Brd4 (S) [2] = target: T2, Brd4 (S) (Homo sapiens, UniProt O60885); test: Concentration-dependent BET degradation, immunoblot; settings: 4 h, 1 nM-10 μM
T2 construct: endogenous in cells; host or cells: HEK293 (CRL-1573), HeLa (CCL-2)
Procedure: as §2
as §3, with “HeLa (5×10^5) and HEK293” for “HEK293”, “(1×10^6)” for “(0.5×10^6)”, “the desired concentration (1 nM-10 μM),” for “1 μM concentration,”, “4 h treatment time,” for “incubation for the desired time (0-24 hrs),”, “cOmplete” for “complete”
(§5) MZ1 and 11JQ17 were used at 1 μM for positive and negative controls, respectively. […] For the table, Dmax: +(Dmax≤25%); ++(26%≤Dmax≤50%); +++(51%≤Dmax≤70%); ++++(71%≤DC50: A (DC50≤50 nM); B (51 nM≤DC50≤500 nM); C (501 nM≤DC50).

Brd4 (L) [3] = target: T3, Brd4 (L) (Homo sapiens, UniProt O60885); test: as above; settings: 4 h, 1 nM-10 μM
T3 construct: endogenous in cells; host or cells: HEK293 (CRL-1573), HeLa (CCL-2)
Procedure: as §2
as §3, with “HeLa (5×10^5) and HEK293” for “HEK293”, “(1×10^6)” for “(0.5×10^6)”, “the desired concentration (1 nM-10 μM),” for “1 μM concentration,”, “4 h treatment time,” for “incubation for the desired time (0-24 hrs),”, “cOmplete” for “complete”
as §5

Brd2 [4] = target: T1, Brd2; test: as above; design: endogenous in cells; host or cells: HEK293 (CRL-1573), HeLa (CCL-2); settings: 1 nM-10 μM
Procedure: as §2
as §3, with “HeLa (5×10^5) and HEK293” for “HEK293”, “(1×10^6)” for “(0.5×10^6)”, “the desired concentration (1 nM-10 μM),” for “1 μM concentration,”, “4 h treatment time,” for “incubation for the desired time (0-24 hrs),”, “cOmplete” for “complete”
as §5

Brd3 = Brd3 (Homo sapiens, UniProt Q15059); test: as above; design: endogenous in cells; host or cells: HEK293 (CRL-1573), HeLa (CCL-2); settings: 1 nM-10 μM
Procedure: as §2
as §3, with “HeLa (5×10^5) and HEK293” for “HEK293”, “(1×10^6)” for “(0.5×10^6)”, “the desired concentration (1 nM-10 μM),” for “1 μM concentration,”, “4 h treatment time,” for “incubation for the desired time (0-24 hrs),”, “cOmplete” for “complete”
as §5

Brd4 (S) [5] = target: T2, Brd4 (S); test: Time-dependent BET degradation, immunoblot; design: Dmax: dose or concentration left out as unconfirmed; settings: HEK293, Brd4 (S); for Dmax: 0-24 hrs; for Abs. T1/2 / T1/2: 1 μM; for Abs. T1/2: time to deplete 50% of the protein relative to DMSO; for T1/2: time to reach 50% of the Dmax
Procedure: as §2, §3, §4

Brd4 (L) [6] = target: T3, Brd4 (L); test: Time-dependent BET degradation, immunoblot; design: Dmax: dose or concentration left out as unconfirmed; settings: HEK293, Brd4 (L); for Dmax: 0-24 hrs; for Abs. T1/2 / T1/2: 1 μM; for Abs. T1/2: time to deplete 50% of the protein relative to DMSO; for T1/2: time to reach 50% of the Dmax
Procedure: as §2, §3, §4

T1 sequence (P25440 whole entry): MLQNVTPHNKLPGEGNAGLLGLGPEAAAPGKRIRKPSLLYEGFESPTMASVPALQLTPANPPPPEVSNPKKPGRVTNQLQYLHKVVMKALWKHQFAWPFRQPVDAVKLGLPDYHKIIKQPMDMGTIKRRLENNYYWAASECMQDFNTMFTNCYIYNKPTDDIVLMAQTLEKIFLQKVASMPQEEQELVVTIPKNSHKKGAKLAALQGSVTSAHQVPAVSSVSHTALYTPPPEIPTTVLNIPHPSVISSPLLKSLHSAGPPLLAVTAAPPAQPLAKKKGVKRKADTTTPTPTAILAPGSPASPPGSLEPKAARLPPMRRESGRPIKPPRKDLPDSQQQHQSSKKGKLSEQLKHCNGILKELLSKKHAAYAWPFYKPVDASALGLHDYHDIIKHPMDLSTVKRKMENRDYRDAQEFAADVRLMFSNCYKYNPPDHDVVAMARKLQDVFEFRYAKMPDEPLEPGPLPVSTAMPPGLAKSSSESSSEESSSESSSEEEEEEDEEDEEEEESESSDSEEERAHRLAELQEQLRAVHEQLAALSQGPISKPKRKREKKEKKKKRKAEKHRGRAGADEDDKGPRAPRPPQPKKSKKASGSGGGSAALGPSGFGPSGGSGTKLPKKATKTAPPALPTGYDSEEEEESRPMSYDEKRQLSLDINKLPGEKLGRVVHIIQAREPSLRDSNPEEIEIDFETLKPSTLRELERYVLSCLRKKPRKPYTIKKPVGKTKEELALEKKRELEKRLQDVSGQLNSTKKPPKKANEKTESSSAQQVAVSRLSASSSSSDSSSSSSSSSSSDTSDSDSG
Sequence of Brd3 (Q15059 whole entry): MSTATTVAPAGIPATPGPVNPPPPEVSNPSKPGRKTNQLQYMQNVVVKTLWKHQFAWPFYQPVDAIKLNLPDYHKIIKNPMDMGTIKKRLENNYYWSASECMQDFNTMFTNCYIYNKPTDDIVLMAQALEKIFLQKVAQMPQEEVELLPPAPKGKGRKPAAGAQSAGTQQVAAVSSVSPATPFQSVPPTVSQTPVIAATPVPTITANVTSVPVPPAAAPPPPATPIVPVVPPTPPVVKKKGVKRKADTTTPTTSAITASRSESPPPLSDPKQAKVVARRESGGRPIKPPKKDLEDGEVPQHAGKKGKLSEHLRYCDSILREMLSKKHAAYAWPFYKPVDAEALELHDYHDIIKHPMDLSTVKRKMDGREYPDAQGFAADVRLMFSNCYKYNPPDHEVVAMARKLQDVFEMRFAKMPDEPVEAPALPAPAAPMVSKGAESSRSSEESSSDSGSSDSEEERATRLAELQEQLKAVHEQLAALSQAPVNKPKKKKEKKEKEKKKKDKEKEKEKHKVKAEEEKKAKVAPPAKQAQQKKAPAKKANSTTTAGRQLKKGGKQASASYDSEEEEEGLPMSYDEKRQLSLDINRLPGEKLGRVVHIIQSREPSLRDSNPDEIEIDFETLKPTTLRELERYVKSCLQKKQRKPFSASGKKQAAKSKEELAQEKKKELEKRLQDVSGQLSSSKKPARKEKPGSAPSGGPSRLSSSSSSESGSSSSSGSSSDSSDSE

Row | SMILES | Dmax at 1 µM (Brd2 [1]) | Abs. T1/2 (Brd2 [1]) | T1/2 (Brd2 [1]) | DC50 (Brd4 (S) [2]; HEK293, Brd4 (S)) | Dmax (Brd4 (S) [2]; HEK293, Brd4 (S)) | DC50 (Brd4 (S) [2]; HeLa) | Dmax (Brd4 (S) [2]; HeLa) | DC50 (Brd4 (L) [3]; HEK293, Brd4 (L)) | Dmax (Brd4 (L) [3]; HEK293, Brd4 (L)) | DC50 (Brd4 (L) [3]; HeLa) | Dmax (Brd4 (L) [3]; HeLa) | DC50 (Brd2 [4]; HEK293, Brd2, 4 h) | Dmax (Brd2 [4]; HEK293, Brd2, 4 h) | DC50 (Brd2 [4]; HeLa, Brd2, 4 h) | Dmax (Brd2 [4]; HeLa, Brd2, 4 h) | DC50 (Brd3; HEK293, Brd3, 4 h) | Dmax (Brd3; HEK293, Brd3, 4 h) | DC50 (Brd3; HeLa, Brd3, 4 h) | Dmax (Brd3; HeLa, Brd3, 4 h) | Dmax (Brd4 (S) [5]) | also measured
1 | Cc1sc2c(c1C)C(c1ccc(Cl)cc1)=N[C@@H](CC(=O)NCCOCCNC(=O)c1cc(SC(=O)c3ccccc3)c3ncc(C(=O)NCCc4nccs4)cc3c1)c1nnc(C)n1-2 [Example 11JQ15] | 50% | 5.7 h | 1.1 h | 51 to 500 nM | 51 to 70% | 51 to 500 nM | 51 to 70% | 51 to 500 nM | 51 to 70% | 51 to 500 nM | 51 to 70% | 51 to 500 nM | 26 to 50% | 51 to 500 nM | 26 to 50% | 51 to 500 nM | 26 to 50% | 51 to 500 nM | 26 to 50% | 90% | Brd2, Brd3 and Brd4 protein levels (FIG. 5) (Brd2, Brd3 and Brd4): depletion of Brd2, Brd3 and Brd4 protein levels; Brd2, Brd3 and Brd4 protein levels (FIG. 4) (Brd2, Brd3 and Brd4; 4 h): depletion of Brd2, Brd3 and Brd4 protein levels; Abs. T1/2 (Brd4 (S) [5]): 1.2 h; T1/2 (Brd4 (S) [5]): 54 min; Dmax (Brd4 (L) [6]): 90%; Abs. T1/2 (Brd4 (L) [6]): 1.1 h; T1/2 (Brd4 (L) [6]): 0.8 h
2 | Cc1sc2c(c1C)C(c1ccc(Cl)cc1)=N[C@@H](CC(=O)NCCCCNC(=O)c1cc(S)c3ncc(C(=O)NCCc4nccs4)cc3c1)c1nnc(C)n1-2 [Example 11JQ7] | 80% | 3.2 h | 1.8 h | 51 to 500 nM | ≥ 71% | ≤ 50 nM | ≥ 71% | 51 to 500 nM | ≥ 71% | ≤ 50 nM | ≥ 71% | 51 to 500 nM | ≥ 71% | ≥ 501 nM | ≥ 71% | ≥ 501 nM | ≥ 71% | 51 to 500 nM | ≥ 71% | 99% | Brd2, Brd3 and Brd4 protein levels (FIG. 1) (Brd2, Brd3 and Brd4; HEK293, 1 μM compound, 4 h, relative to 0.1% DMSO): approaching the potency of PROTAC MZ1; Abs. T1/2 (Brd4 (S) [5]): 1.9 h; T1/2 (Brd4 (S) [5]): 114 min; Dmax (Brd4 (L) [6]): 98%; Abs. T1/2 (Brd4 (L) [6]): 1.2 h; T1/2 (Brd4 (L) [6]): 1.2 h
3 | Cc1sc2c(c1C)C(c1ccc(Cl)cc1)=N[C@@H](CC(=O)NCCCCNC(=O)c1cc(SC(=O)c3ccccc3)c3ncc(C(=O)NCCc4nccs4)cc3c1)c1nnc(C)n1-2 [Example 11JQ16] | 75% | 2.7 h | 1.7 h | ≤ 50 nM | ≥ 71% | 51 to 500 nM | ≥ 71% | ≤ 50 nM | ≥ 71% | 51 to 500 nM | ≥ 71% | 51 to 500 nM | ≥ 71% | 51 to 500 nM | 51 to 70% | ≤ 50 nM | ≥ 71% | ≥ 501 nM | 51 to 70% | 95% | Brd2, Brd3 and Brd4 protein levels (FIG. 5) (Brd2, Brd3 and Brd4): depletion of Brd2, Brd3 and Brd4 protein levels; Brd2, Brd3 and Brd4 protein levels (FIG. 4) (Brd2, Brd3 and Brd4; 4 h): depletion of Brd2, Brd3 and Brd4 protein levels; Abs. T1/2 (Brd4 (S) [5]): 0.6 h; T1/2 (Brd4 (S) [5]): 36 min; Dmax (Brd4 (L) [6]): 98%; Abs. T1/2 (Brd4 (L) [6]): 1.0 h; T1/2 (Brd4 (L) [6]): 1.0 h
